# According to patent publication US10849922B2, “Treatments for retinal disorders” (Cornell University, priority 2011, dated 2020):
# Tests used:
# [1] = Fluorescence comparison of cyclodextrin binding to DHE; conditions: fluorescence spectra changes as a function of added β-CD concentration
# Description: The binding of A2E and DHE (fluorescent cholesterol analog to cyclodextrins) has been herein investigated by using the assay method described above. […] The determination of affinity constants and stoichiometry for new inclusion complexes can be complex, particularly when the molecular ratio host:guest is bigger than 1. For cholesterol, however, the affinity constants, stoichiometry, molecular structure, and applications of many of its inclusion complexes with cyclic oligosaccharides have been well established. In this context, the side-by-side comparation of A2E and cholesterol complex formation with the same cyclic oligosaccharide serves as an immediate reference to evaluate the quality of the inclusion complex with A2E, as well as help in the determination of its affinity constant, stoichiometry, and structure.
# A2E aggregation assay = conditions: A2E 25 μM aqueous solution
# Description: A2E aggregates are believed to have a role in RPE cell death. This study investigated whether cyclic oligosaccharides dissolve A2E aggregates that form in aqueous phase. The following can be deduced from FIG. 13:
# […] After three days, the liquid in each chamber was harvested and analyzed with a spectrofluorometer to detect the presence of A2E. Only inserts with 3 μm pores allowed A2E to diffuse through.
# The presence of A2E on each side was established by fluorescence scanning between 530-700 nm using 434 nm as the excitation wavelength.
# A2E oxidation assay = conditions: A2E 5 μM in water, 48 hours, RT in the dark, cyclodextrin 10-100 mM
# Protocol: Solutions containing increasing amounts of Poly Beta-CD (0 mM to 100 mM) were prepared in water, and A2E was added to a final concentration of 5 μM. The solutions were incubated at RT in the dark. 48 hrs later, the UV-visible absorption spectra between 300 and 700 nm was analyzed to determine the oxidative status of A2E. […] These bands can be assigned to the shorter (S) and longer (L) arms of A2E, respectively. Oxidation of a carbon-carbon double bond is accompanied by a hypsochromic shift. A hypsochromic shift in band S corresponds with oxidation on the short arm; a blue-shift in band L reflects oxidation on the long arm; hypsochromic shifts in both peaks indicates oxidation on both side arms (Jang Y. P. et al., J. Biol. Chem., 2005, 280(48):39732-9). The results shown in FIG. 12A indicate that under this aqueous environment A2E oxidizes.
# [2] = A2E fluorescence assay for molecules able to encapsulate A2E (AUC ratio); assay type: binding; conditions: fluorescence spectra changes as a function of added β-CD concentration
# Protocol: In the assay method, at least two solutions containing a lipofuscin bisretinoid lipid are first provided, and the at least two solutions should be substantially the same in all respects, such as in the type of lipofuscin bisretinoid lipid, the concentration of lipofuscin bisretinoid lipid, and the solvent composition. A candidate compound is then added to at least one of the solutions. Fluorescence spectra of the two solutions (i.e., a first solution not containing the candidate compound and a second solution containing the candidate compound) is then measured at an excitation wavelength (e.g., 434 nm or other suitable excitation wavelength) that causes fluorescence of the lipofuscin bisretinoid lipid in the range of 530 nm and 700 nm, or any suitable sub-range therein. An area under the curve (AUC) is then determined for corresponding spectral curves of the first and second solutions within the range of 530 nm and 700 nm or a sub-range therein. […] A ratio of the AUC of the second solution (containing the candidate compound) over the AUC of the first solution (not containing the candidate compound) is then calculated. […]
# The fluorescence spectra were immediately determined (although it was stable for several days) between 530 and 700 nm using a 434 nm excitation wavelength. […] The area under the resulting spectral fluorescence curve was determined with statistical software (Prism4, GraphPad). […]
# DKO mice = assay: Fluorescence microscopy of cryosected retinas of DKO mice after subtenon injection; assay type: in vivo; conditions: single subtenon injection 4000 mg/kg, after 48 hours; for retinal detachment in cryosected retinas: 4000 mg/kg
# Protocol: FIG. 18. Micrographs showing the fluorescence of cryosected retinas of 8-months old WT and DKO mice. The micrographs obtained from (A) a normal mouse, (B) DKO animals not treated with methyl beta-CD, and (C) DKO animals treated with methyl beta-CD. The DKO animals have strong autofluorescence in the RPE layer compared with WT as well as retinal detachment (size shown by arrow). Single subtenon administration of methyl Beta CD (4000 mg/kg) reduced both RPE autofluorescence and retinal detachment.
# The retinas of wild type and DKO animals were analyzed by fluorescence microscopy with the following procedure. Briefly wild type and DKO animals were mock-treated or treated with a single subtenon injection with either vehicle or with methyl beta-cyclodextrin (4000 mg/kg). After 48 hours the eyes were enucleated, fixed, and cryosected. For viewing, 10-micron thick sections were blocked and stained with the red-fluorescently labeled lectin PNA to identify cones in the photoreceptor outer segments (PROS), and blue DAPI nuclear stain to identify the nuclei. In the gray scale micrograph of FIG. 18 (Panel A), the red and blue stains are not distinguishable, so the red fluorescence is labeled PROS and the lighter autofluorescent RPE is also labeled.
# eyecups from DKO mice = assay: In vitro assay on eyecups of DKO mice; conditions: 2 mM cyclodextrin, 36 hours of culture
# Protocol: FIGS. 17A, 17B. […] The resulting eyecups were in vitro treated with cyclodextrins for 36 hrs before observing them under the microscope (FIG. 17B).
# Eyecups comprise the dark pigmented RPE, choriocapillaries, as well as the grayish sclera. Eyecups were incubated in complete media containing, or not, 2 mM cyclodextrins. After 36 hours of culture, eyecups were flat mounted on glasses and fluorescence was analyzed in the microscope.
# [3] = cited from earlier work
compound,measurement,setting,value
"OC[C@H]1O[C@@H]2O[C@H]3[C@H](O)[C@@H](O)[C@@H](O[C@H]4[C@H](O)[C@@H](O)[C@@H](O[C@H]5[C@H](O)[C@@H](O)[C@@H](O[C@H]6[C@H](O)[C@@H](O)[C@@H](O[C@H]7[C@H](O)[C@@H](O)[C@@H](O[C@H]8[C@H](O)[C@@H](O)[C@@H](O[C@H]1[C@H](O)[C@H]2O)O[C@@H]8CO)O[C@@H]7CO)O[C@@H]6CO)O[C@@H]5CO)O[C@@H]4CO)O[C@@H]3CO [Compound 4, β-cyclodextrin]",formation of inclusion complex with DHE,[1],formation of DHE-β-CD
same,dissolution of A2E aggregates in aqueous phase (diffusion through 0.2 μm pores),A2E aggregation assay,dissolved the A2E aggregates
same,oxidation of A2E (UV-visible absorption spectra),A2E oxidation assay,oxidation of A2E was not observed
same,formation of inclusion complex with A2E,[2],A2E-β-CD inclusion complexes
Methyl-β-cyclodextrin [Compound 5],RPE autofluorescence (bisretinoids) in cryosected retinas,DKO mice,reduced
same,retinal detachment in cryosected retinas,DKO mice; listed as methyl Beta CD,reduced
same,retinal detachment in cryosected retinas,DKO mice; listed as methyl beta-cyclodextrin,reduced detachment
same,fluorescence of eyecups (bisretinoids in RPE),eyecups from DKO mice,lack of fluorescence
Triacetyl-β-cyclodextrin [Compound 12],solubility in water (in words),[3],insoluble
